# Test results from the supplement of paper PMC11061612.
# Columns and labels:
# [1] = test system: RERF-LC-Sq1 (Squamous Cell Lung Carcinoma); assay: combination Emax (second highest fraction inhibited in the dose matrix, 72 h); higher = more inhibition; extreme values may be limits of the assay
# How it was run: (§1)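 Bliss excess equals the observed combination effect minus the expected value EA + EB − EA·EB, where EA and EB are the effects of each agent alone. Combination Emax is the second-highest inhibition within the matrix. Inhibition was scaled from CellTiter-Glo 2.0 luminescence, with 0 set by vehicle wells and 1 by blank wells, after 72 hours of two-drug dosing of cells plated in 1536-well plates.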
# [2] = test system: SU-DHL-10 (B-Cell Non-Hodgkin's Lymphoma); assay: as above
# How it was run: as §1
# [3] = test system: COLO-680N (Esophageal Squamous Cell Carcinoma); assay: as above
# How it was run: as §1
# [4] = test system: SHP-77 (Small Cell Lung Carcinoma); assay: as above
# How it was run: as §1
# [5] = test system: 23132-87 (Gastric Carcinoma); assay: as above
# How it was run: as §1
# WM278 (Melanoma) = assay: as above
# How it was run: as §1
# [6] = test system: CAL-120 (Breast Carcinoma); assay: as above
# How it was run: as §1
# [7] = test system: OVMIU (Ovarian Carcinoma); assay: as above
# How it was run: as §1
# [8] = test system: TE-8 (Esophageal Squamous Cell Carcinoma); assay: as above
# How it was run: as §1
# IST-MES1 (Mesothelioma) = assay: as above
# How it was run: as §1
# WM793B (Melanoma) = assay: as above
# How it was run: as §1
# [9] = test system: CAL-62 (Thyroid Gland Carcinoma); assay: as above
# How it was run: as §1
# [10] = test system: REH (B-Lymphoblastic Leukemia); assay: as above
# How it was run: as §1
# [11] = test system: MKN45 (Gastric Carcinoma); assay: as above
# How it was run: as §1
# [12] = test system: RKN (Other Solid Carcinomas); assay: as above
# How it was run: as §1
# [13] = test system: MFE-280 (Endometrial Carcinoma); assay: as above
# How it was run: as §1
# A2058 (Melanoma) = assay: as above
# How it was run: as §1
# SF539 (Glioblastoma) = assay: Bliss excess, mean over the matrix (fraction); higher = more synergy
# How it was run: as §1
# [14] = test system: PANC-03-27 (Pancreatic Carcinoma); assay: as above
# How it was run: as §1
# [15] = test system: RKN (Other Solid Carcinomas); assay: as above
# How it was run: as §1
SMILES,combination Emax [1],combination Emax [2],combination Emax [3],combination Emax [4],combination Emax [5],combination Emax (WM278 (Melanoma)),combination Emax [6],combination Emax [7],combination Emax [8],combination Emax (IST-MES1 (Mesothelioma)),combination Emax (WM793B (Melanoma)),combination Emax [9],combination Emax [10],combination Emax [11],combination Emax [12],combination Emax [13],combination Emax (A2058 (Melanoma)),Bliss excess (SF539 (Glioblastoma)),Bliss excess [14],Bliss excess [15]
"COc1cc2ncnc(Nc3ccc(F)c(Cl)c3)c2cc1OCCCN1CCOCC1 [Gefitinib] + CC(C)n1c(=O)n(C)c2cnc3cc(F)c(-c4ccc(OCCCN5CCCCC5)nc4)cc3c21 [AZD1390] (first compound max 10 µM, 7x7, partner max 0.3 µM)",0.543,0.723,0.213,0.0777,0.127,0.0959,0.14,0.532,0.225,0.17,0.142,0,0.145,0.14,0.175,0.246,0.119,-0.0347,-0.0223,-0.0646
"CS(=O)(=O)CCNCc1ccc(-c2ccc3ncnc(Nc4ccc(OCc5cccc(F)c5)c(Cl)c4)c3c2)o1 [Lapatinib] + C[C@@H](Oc1cc(-c2cnn(C3CCNCC3)c2)cnc1N)c1c(Cl)ccc(F)c1Cl [Crizotinib] (first compound max 10 µM, 7x7, partner max 10 µM)",0.949,1,0.483,0.817,0.594,0.768,0.734,0.969,0.71,0.686,0.973,0.776,0.964,0.913,0.294,0.88,0.991,-0.0621,-0.0111,-0.05
"CC(=O)c1c(C)c2cnc(Nc3ccc(N4CCNCC4)cn3)nc2n(C2CCCC2)c1=O [Palbociclib] + CC1(C)CCC(CN2CCN(c3ccc(C(=O)NS(=O)(=O)c4ccc(NCC5CCOCC5)c([N+](=O)[O-])c4)c(Oc4cnc5[nH]ccc5c4)c3)CC2)=C(c2ccc(Cl)cc2)C1 [Venetoclax] (first compound max 10 µM, 7x7, partner max 1 µM)",0.436,1,0.0584,0.671,0.17,0.185,0.134,0.149,0.286,0.253,0.327,0.151,0.825,0.486,0.102,0.0835,0.0912,-0.0164,-0.0545,-0.0841
"CC(=O)c1c(C)c2cnc(Nc3ccc(N4CCNCC4)cn3)nc2n(C2CCCC2)c1=O [Palbociclib] + Cc1c2c(nn1C)CSCc1cc(n(C)n1)CSc1cc(c3ccccc3c1)OCCCc1c(C(=O)O)n(C)c3c-2c(Cl)ccc13 [AZD5991] (first compound max 10 µM, 7x7, partner max 1 µM)",0.594,1,0.237,0.646,0.305,0.156,0.134,0.27,0.427,0.344,0.432,0.308,0.835,0.498,0.151,0.227,0.753,-0.0637,-0.0242,-0.0557
"CC(=O)c1c(C)c2cnc(Nc3ccc(N4CCNCC4)cn3)nc2n(C2CCCC2)c1=O [Palbociclib] + Cn1cnc2c(F)c(Nc3ccc(Br)cc3Cl)c(C(=O)NOCCO)cc21 [Selumetinib] (first compound max 10 µM, 7x7, partner max 10 µM)",0.512,0.997,0.193,0.527,0.128,0.574,0.186,0.427,0.383,0.334,0.585,0.457,0.448,0.694,0.399,0.199,0.47,-0.0345,-0.0015,-0.0279
"COc1cccc(OCCCN)c1-c1cc(Nc2cnc(C#N)cn2)n[nH]1 [Prexasertib] + C=CCn1c(=O)c2cnc(Nc3ccc(N4CCN(C)CC4)cc3)nc2n1-c1cccc(C(C)(C)O)n1 [AZD1775] (first compound max 1 µM, partner max 1 µM)",0.906,1,0.505,0.949,0.939,0.605,0.685,0.814,0.966,0.609,0.938,0.86,1,0.865,0.833,0.739,0.519,0.0187,-0.0327,0.117
"COc1cccc(OCCCN)c1-c1cc(Nc2cnc(C#N)cn2)n[nH]1 [Prexasertib] + CCc1c2c(nc3ccc(O)cc13)-c1cc3c(c(=O)n1C2)COC(=O)[C@]3(O)CC [SN-38] (first compound max 1 µM, 7x7, partner max 0.3 µM)",0.824,1,0.685,0.988,0.898,0.695,0.85,0.571,0.972,0.836,0.896,0.884,1,0.853,0.966,0.936,0.924,-0.0091,-0.0381,0.134
